pIC50: −log10 of the molar value.
Target: T1, Mannose-6-phosphate isomerase (Homo sapiens, UniProt P34949)
T1 sequence (P34949 whole entry): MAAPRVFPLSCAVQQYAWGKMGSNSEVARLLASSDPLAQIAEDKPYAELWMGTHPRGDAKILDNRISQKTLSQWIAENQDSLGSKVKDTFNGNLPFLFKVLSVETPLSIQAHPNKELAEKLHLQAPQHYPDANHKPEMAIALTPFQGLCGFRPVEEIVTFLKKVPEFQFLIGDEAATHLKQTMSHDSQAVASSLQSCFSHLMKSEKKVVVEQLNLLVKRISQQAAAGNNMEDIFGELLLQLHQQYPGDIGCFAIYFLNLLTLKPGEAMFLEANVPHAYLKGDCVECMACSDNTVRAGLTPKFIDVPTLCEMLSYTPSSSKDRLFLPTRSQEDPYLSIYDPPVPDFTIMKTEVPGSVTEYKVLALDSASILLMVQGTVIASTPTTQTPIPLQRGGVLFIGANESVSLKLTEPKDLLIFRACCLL
Assay: phosphomannose isomerase inhibition – biochemical, fluorescence intensity, confirmation (AID 1535)

- pIC50: < 4.00
Compound: Oc1c(-c2ccccc2)sc2ccccc12 [2-phenyl-1-benzothiophen-3-one]

Reference: BindingDB's records for doi:10.7270/Q2J964TC (Burnham Center for Chemical Genomics, 2010)
